Reference: patent US20180272034A1, “USE OF CSA COMPOUNDS TO PREVENT MICROBIAL BUILD-UP OR FOULING OF MEDICAL IMPLANTS” (BRIGHAM YOUNG UNIVERSITY, priority 2017, published 2018)
Several values for one entry are separate records, joined by “and”; a condition that tells them apart may be missing. Identical values can stand only once.

How the values were obtained:
[1] = tested on: methicillin-resistant Staphylococcus aureus (MRSA); test: Coated endotracheal tube segments, daily re-inoculation, growth in medium; format: cell-based; parameters: key to bacterial growth in medium, Day 1 / bacterial growth in medium, Day 10 / bacterial growth in medium, Day 2 / bacterial growth in medium, Day 3 / bacterial growth in medium, Day 4 / bacterial growth in medium, Day 5 / bacterial growth in medium, Day 6 / bacterial growth in medium, Day 7 / bacterial growth in medium, Day 8 / bacterial growth in medium, Day 9: N=no growth; G=growth
Protocol: (§1) A hydrogel coating containing 10% CSA-131 HCl and 3% citric acid, relative to the hydrogel solids, was tested for antibacterial efficacy using endotracheal tube segments (5.0 mm). These tube segments (surface area of ca. 1.5 cm^2) were dip coated and cured to give coatings of approximately 10 microns. Coated tube segments were washed in phosphate buffered saline (PBS) for varied amounts of time before testing. Antibacterial testing involved immersing tube segments in 10% TSB in PBS (1.0 mL) and inoculating with Pseudomonas aeruginosa (PA01)@10^6 colony forming units (CFU). Samples were incubated for 24 h, and bacterial growth in the medium was assayed visually (i.e., turbidity in the medium is caused by unrestricted bacterial growth). […] And the converse is true: if growth is supported in the medium that the device is colonized, to some extent.
(§2) After 24 h of incubation, tube segments were immersed in fresh growth media (10% TSB in PBS, 1 mL), re-inoculated, and incubated. […] Experiments were performed in triplicate. N=no growth, G=growth.
(§3) Antibacterial activity of a hydrogel coating (ca. 10 microns) containing CSA-131 2-NDSA (10% by weight relative to hydrogel solids) was determined as described in Example 8 using methicillin-resistant Staphylococcus aureus (MRSA) and Pseudomonas aeruginosa (PA01).

PA01 = test: Drip flow system, whole coated endotracheal tubes; format: cell-based, Pseudomonas aeruginosa; details: hydrogel 10% CSA-131 2-NDSA; three inoculations of 10^7 CFU, 24 h; detection limit 10 CFU
Protocol: At eight-hour intervals, bacteria (PA01, 10^6 CFU/mL) were passed through the tubes for 10 min (total of 10^7 CFU) at each interval. At a time point 30 min after introduction of bacteria, the growth medium flowing through the tubes was collected and plated to determine the number of bacterial colonies present. After 24 h, tubes were removed and sections (5 mm) were cut from above and below the cuff. These were sonicated in a neutralizing medium and the resulting solution was plated to quantify bacterial biofilm growth.

[2] = Hydrogel coating stability and reaction with ethylene oxide (ETO)
Protocol: Releases of CSA-131 from hydrogel-based coatings were investigated, including examining coating stability and reaction of the coating with ethylene oxide (ETO) during sterilization processes. […] To mask this reactivity, coatings were prepared including varies percentages of citric acid to form non-volatile salts of the CSA compound.
Using a jet mill (Fluid Energy), CSA-131 2-NDSA was milled to an average particle size of 200 nm.

[3] = tested on: Pseudomonas aeruginosa (PA01); test: Coated endotracheal tube segments, daily re-inoculation, growth in medium; format: cell-based; parameters: key to bacterial growth in medium, Day 1 / bacterial growth in medium, Day 2 / bacterial growth in medium, Day 3 / bacterial growth in medium, Day 4 / bacterial growth in medium, Day 5 / bacterial growth in medium, Day 6 / bacterial growth in medium, Day 7 / bacterial growth in medium, Day 10 / bacterial growth in medium, Day 8 / bacterial growth in medium, Day 9: N=no growth; G=growth
Protocol: as §1, §2, §3

[4] = three replicates, hydrogel coating 10% CSA-131 2-NDSA, re-inoculated every 24 h
[5] = PA01, three replicates, hydrogel coating 10% CSA-131 2-NDSA, re-inoculated every 24 h

Q: For `CCCCCCCCCCCCNCCC[C@@H](C)[C@H]1CC[C@H]2[C@@H]3[C@H](OCCCN)C[C@@H]4C[C@H](OCCCN)CC[C@]4(C)[C@H]3C[C@H](OCCCN)[C@]12C.O=S(=O)(O)c1cccc2c(S(=O)(=O)O)cccc12.O=S(=O)(O)c1cccc2c(S(=O)(=O)O)cccc12` [CSA-131 2-NDSA], which “time coating prevented bacterial growth” value ([1]; hydrogel coating ca. 10 microns, 10% CSA-131 2-NDSA) is on record?
A: eight

Q: What about the “bacterial growth in medium, Day 1” value [1, 4] of the same compound?
A: N

Q: And the “bacterial growth in medium, Day 2” value [1, 4]?
A: N

Q: What about the “bacterial growth in medium, Day 3” value [1, 4] of the same compound?
A: N

Q: What about the “bacterial growth in medium, Day 4” value [1, 4] of the same compound?
A: N

Q: What about the “bacterial growth in medium, Day 5” value [1, 4] of the same compound?
A: N

Q: What about the “bacterial growth in medium, Day 6” value [1, 4] of the same compound?
A: N

Q: And the “bacterial growth in medium, Day 7” value [1, 4]?
A: G and N (2×)

Q: And the “bacterial growth in medium, Day 8” value [1, 4]?
A: G and N (2×)

Q: What about the “bacterial growth in medium, Day 9” value [1, 4] of the same compound?
A: G

Q: What about the “bacterial growth in medium, Day 10” value [1, 4] of the same compound?
A: G

Q: What about the “bacteria from sonication of tube sections (biofilm)” value (PA01) of the same compound?
A: no bacteria were detected

Q: And the “bacteria in collected effluent from tubes” value (PA01)?
A: no bacteria were detected

Q: What about the coating stability ([2]; CSA-131 2-NDSA in hydrogel coating) of the same compound?
A: stable coatings

Q: What about the “reaction with ETO during sterilization” value ([2]; CSA-131 2-NDSA particles (200 nm) in hydrogel coating) of the same compound?
A: did not react with ETO

Q: And the “bacterial growth in medium, Day 1” value [3, 5]?
A: N

Q: What about the “bacterial growth in medium, Day 2” value [3, 5] of the same compound?
A: N

Q: And the “bacterial growth in medium, Day 3” value [3, 5]?
A: N

Q: What about the “bacterial growth in medium, Day 4” value [3, 5] of the same compound?
A: N

Q: And the “bacterial growth in medium, Day 5” value [3, 5]?
A: N

Q: And the “bacterial growth in medium, Day 6” value [3, 5]?
A: N

Q: And the “bacterial growth in medium, Day 7” value [3, 5]?
A: N

Q: What about the “bacterial growth in medium, Day 8” value [3, 5] of the same compound?
A: G

Q: What about the “bacterial growth in medium, Day 9” value [3, 5] of the same compound?
A: G

Q: What about the “bacterial growth in medium, Day 10” value [3, 5] of the same compound?
A: G

Q: And the “time coating prevented bacterial growth” value ([3]; PA01, hydrogel coating ca. 10 microns, 10% CSA-131 2-NDSA)?
A: seven
